Measurements taken from patent publication US20160039936A1, “FIBROBLAST GROWTH FACTOR RECEPTOR INHIBITION FOR THE TREATMENT OF DISEASE” (UNIVERSITY OF MIAMI, priority 2011, published 2016).

How the values were obtained:
[1] = test system: isolated NRVM; assay: Quantitative PCR of ANP and BNP in NRVM; type: cell-based, rat; conditions: for expression of ANP and BNP: 48 h, FGF alone, qPCR
Experimental: Total RNA was purified from isolated NRVMs using Trizol (G Biosciences) according to the manufacturer's protocol, and reverse transcribed using Qscript (Quanta Biosciences). Gene expression was quantified by real-time PCR on a Biorad CFX 96 real-time Detection System using 200 ng of cDNA, PerfeCTA SYBR Green FastMix ROX (Quanta Biosciences). RNA from total mouse and rat hearts was extracted using the PureLink RNA Mini Kit (Ambion by Life Technologies) and Trizol (Life Technologies). 2 μg total RNA was reverse-transcribed using First Stand cDNA Synthesis Kit for RT-PCR (AMV) (Roche Diagnostics). Quantitative PCR reactions were carried out in the StepOne plus Real-Time PCR System (Applied Biosystems) using FAST SYBR Green Master Mix (Applied Biosystems). Raw data were quantified via StepOne™ software v2.3 from life Technologies. Relative gene expression was normalized to expression levels of 18S rRNA (for NRVM), and GAPDH or beta actin (mouse and rat tissue), and evaluated using the 2^−ΔΔCt method.

[2] = test system: isolated neonatal rat ventricular cardiac myocytes (NRVM); assay: Surface area (hypertrophy) of isolated NRVM, immunocytochemistry and morphometry (Examples 1-2); type: cell-based; conditions: for cell surface area: 48 h incubation with the FGF alone
Experimental: NRVM were isolated using a standard isolation system (Worthington Biochemical Corporation) (Toraason et al., Toxicology, 56(1):107-117, 1989). Hearts from 1-2 day old Sprague Dawley rats (Charles River) were harvested, minced in calcium- and magnesium-free Hank's Balanced Salt Solution (HBSS), and the tissue digested with 50 μg/ml trypsin at 4° C. for 20-24 hours. Soybean trypsin inhibitor in HBSS was added and the tissue was further digested with collagenase (in Leibovitz L-15 medium) under slow rotation (15 rpm) at 37° C. for 45 minutes. Cells were released by gently triturating the suspension 20 times with a standard 10 ml plastic serological pipette and filtering it twice through a cell strainer (70 μm, BD Falcon). Cells were incubated at room temperature for 20 minutes and spun at 100 g for 5 minutes. The cell pellet was resuspended in plating medium [Dulbecco's Modified Eagle Medium (DMEM; Cellgro) with 17% Media 199 (Invitrogen), 15% fetal bovine serum (FBS; Invitrogen) and 1% penicillin/streptomycin solution (P/S; Invitrogen)]. Cells were counted using a hemocytometer.
Cells were plated on glass and plastic surfaces which were coated with laminin (Invitrogen; 10μg/ml in PBS) at room temperature for 1 hour prior to plating. For immunofluorescence analysis, 1×10^6 cells were seeded per well on glass coverslips in 6-well plates. For protein and RNA isolation, 2×10^6 cells were seeded in 6 cm-culture dishes. Cells were left undisturbed in plating medium at 37° C. for 72 hours and then cultured in maintenance medium (DMEM with 20% Media 199, 1% insulin-transferrin-sodium selenite solution (ITS; Sigma-Aldrich) and 1% P/S) in the presence of 100 μM 5-bromo-2′-deoxyuridine (BrdU; Sigam-Aldrich) to eliminate proliferating non-myocytes resulting in a relatively pure population of isolated cardiac myocytes (Bishopric et al., 1987). After 4 days, isolated cardiac myocytes were cultured in BrdU-containing maintenance medium in the presence of recombinant murine FGF23 (26.1 kDa, 251 amino acids; R&D Systems) or FGF2 (16.2 kDa, 144 amino acids; R&D Systems) for 48 hours.
We analyzed isolated NRVM on laminin-coated glass coverslips by immunocytochemsitry according to our established protocols (Faul et al., Cell Biol., 169(3):415-424, 2005; Faul et al., Cell Biol., 27(23):8215-8227, 2007). The mouse monoclonal antibody against sarcomeric α-actinin (EA-53; Sigma-Aldrich) was used at 1:1000 and Cy3-conjugated goat-anti mouse (Jackson Immuno Research) as secondary antibody at 1:750. To visualize nuclei, fixed cells were incubated with 4′,6-diamidino-2-phenylindole (DAPI; 400 ng/ml in PBS) for 5 minutes. Immunofluorescence images were taken on a Leica TCS-SP5 confocal microscope with a 63× oil objective with a 1.6× zoom. Leica AF6000 fluorescence software was used to measure the cell surface area based on α-actinin-positive staining.
To assess the signaling pathways involved in FGF23- and FGF2-mediated hypertrophy, we analyzed the morphometry of plated cells that were pre-treated with specific inhibitors for 60 minutes prior to the addition of the FGFs at varying concentrations.

Row | Molecule | FGF2-mediated increases in ANP and BNP expression with inhibitor ([1]; 48 h co-treatment) | FGF23-mediated increases in ANP and BNP expression with inhibitor ([1]; 48 h co-treatment) | FGF2-induced increase in cell surface area (hypertrophy) in presence of inhibitor ([2]; 48 h FGF2, inhibitor pre-treated 60 min at Table 2 concentration) | FGF23-induced increase in cell surface area (hypertrophy) in presence of inhibitor ([2]; 48 h FGF23, inhibitor pre-treated 60 min at Table 2 concentration) | expression of ANP and BNP [1] | cell surface area [2]
1 | CCN(CC)CCCCNc1ncc2cc(-c3cc(OC)cc(OC)c3)c(NC(=O)NC(C)(C)C)nc2n1 [PD173074] | blocks | blocks | completely blocked | completely blocked | – | –
2 | FGF2: recombinant mouse FGF2 (Ala11-Ser154) (R&D Systems) (protein) ALPEDGGAAFPPGHFKDPKRLYCKNGGFFLRIHPDGRVDGVREKSDPHVKLQLQAEERGVVSIKGVCANRYLAMKEDGRLLASKCVTEECFFFERLESNNYNTYRSRKYSSWYVALKRTGQYKLGSKTGPGQKAILFLPMSAKS | – | – | – | – | significantly increased | significant increase
3 | FGF23: recombinant mouse FGF23, 6His-tagged Tyr25-Val251 (Arg179Gln) (R&D Systems) (protein, left off: small tags and cut ends) YPDTSPLLGSNWGSLTHLYTATARTSYHLQIHRDGHVDGTPHQTIYSALMITSEDAGSVVITGAMTRRFLCMDLHGNIFGSLHFSPENCKFRQWTLENGYDVYLSQKHHYLVSLGRAKRIFQPGTNPPPFSQFLARRNEVPLLHFYTVRPRRHTQSAEDPPERDPLNVLKPRPRATPVPVSCSRELPSAEEGGPAASDPLGVLRRGRGDARGGAGGADRCRPFPRFV | – | – | – | – | significantly increased | significant increase
